Values after ≈ are worked out from the molar mass of the structure shown.
Key:
Hepatitis B virus [1] = assay: Antiviral activity against Hepatitis B virus infected in human HepDE19 cells assessed as reduction in viral replication incubated for 3 to 7 days by PCR analysis; format: functional, organism-based
[2] = Microsomal stability in human liver microsomes assessed as intrinsic clearance; format: ADME, Microsome; conditions: read-out: CLH
[3] = Aqueous solubility of the compound in PBS buffer at pH 7.4; format: physicochemical
[4] = Microsomal stability in mouse liver microsomes assessed as intrinsic clearance; format: ADME, Microsome; conditions: read-out: CLH
Hepatitis B virus [5] = assay: Antiviral activity against Hepatitis B virus Genotype D infected in NOD.CB17-PrkdcSCID/J mouse model assessed as log reduction in serum HBV DNA level at 30 mg/kg,po dosed for 7 consecutive days by qPCR analysis; format: functional
[6] = AUC (0-infinity) in CD-1 mouse at 10 mg/kg,po; format: ADME, organism-based; design: dose 10 mg/kg, route po; conditions: in vivo
Hepatitis B virus [7] = assay: Antiviral activity against Hepatitis B virus Genotype D infected in NOD.CB17-PrkdcSCID/J mouse model assessed as log reduction in serum HBV DNA level at 100 mg/kg,po dosed for 7 consecutive days by qPCR analysis; format: functional
[8] = Half life in CD-1 mouse at 2 mg/kg,iv; format: ADME, organism-based; conditions: in vivo
[9] = Clearance in CD-1 mouse at 2 mg/kg,iv; format: ADME, organism-based; conditions: in vivo
Hepatitis B virus [10] = assay: Antiviral activity against Hepatitis B virus Genotype D infected in NOD.CB17-PrkdcSCID/J mouse model assessed as reduction in serum HBV DNA level at po dosed for 7 consecutive days; format: functional, organism-based
Hepatitis B virus [11] = assay: Antiviral activity against Hepatitis B virus Genotype D infected in NOD.CB17-PrkdcSCID/J mouse model assessed as log reduction in serum HBV DNA level at 10 mg/kg,po dosed for 7 consecutive days by qPCR analysis; format: functional
[12] = Cmax in CD-1 mouse at 10 mg/kg,po; format: ADME, organism-based; design: dose 10 mg/kg, route po; conditions: in vivo
[13] = Cytotoxicity against human HepDE19 cells incubated for 48 hrs by cell titer-glo luminescent based cell viability assay; format: toxicity
Cytochrome P450 2C9 = Cytochrome P450 2C9 (Homo sapiens, UniProt P11712); assay: Inhibition of CYP2C9 (unknown origin); format: ADME
in vivo [14] = conditions: dog, po, 10 mg/kg
Description: AUC (0-infinity) in dog at 10 mg/kg,po

Cytochrome P450 3A4 = Cytochrome P450 3A4 (Homo sapiens, UniProt P08684); assay: Inhibition of CYP3A4 (unknown origin); format: ADME
[15] = Clearance in dog at 2 mg/kg,iv; format: ADME, organism-based, Canis lupus familiaris; conditions: in vivo
[16] = Clearance in rat at 2 mg/kg,iv; format: ADME, organism-based; conditions: in vivo
[17] = Cmax in rat at 10 mg/kg,po; format: ADME, organism-based; design: dose 10 mg/kg, route po; conditions: in vivo
[18] = Cmax in dog at 10 mg/kg,po; format: ADME, organism-based, Canis lupus familiaris; design: dose 10 mg/kg, route po; conditions: in vivo
Cytochrome P450 1A2 = target: T1, Cytochrome P450 1A2 (Homo sapiens, UniProt P05177); assay: Inhibition of CYP1A2 (unknown origin); format: ADME
T1 sequence (P05177 whole entry): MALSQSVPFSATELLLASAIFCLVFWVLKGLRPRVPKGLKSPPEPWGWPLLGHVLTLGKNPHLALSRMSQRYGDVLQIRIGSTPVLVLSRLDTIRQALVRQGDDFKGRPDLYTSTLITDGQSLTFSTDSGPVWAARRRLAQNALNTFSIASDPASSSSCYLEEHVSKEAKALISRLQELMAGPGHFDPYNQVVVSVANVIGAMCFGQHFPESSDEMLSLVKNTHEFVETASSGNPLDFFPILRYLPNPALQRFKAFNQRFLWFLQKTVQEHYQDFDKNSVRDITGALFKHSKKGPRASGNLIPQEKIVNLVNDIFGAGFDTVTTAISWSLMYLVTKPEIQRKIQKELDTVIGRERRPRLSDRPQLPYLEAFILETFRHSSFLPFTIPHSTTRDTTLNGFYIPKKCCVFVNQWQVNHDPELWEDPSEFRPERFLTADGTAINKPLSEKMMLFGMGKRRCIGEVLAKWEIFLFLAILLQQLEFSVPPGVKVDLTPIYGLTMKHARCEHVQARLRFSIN

[19] = Half life in rat at 2 mg/kg,iv; format: ADME, organism-based; conditions: in vivo
Cytochrome P450 2D6 = Cytochrome P450 2D6 (Homo sapiens, UniProt P10635); assay: Inhibition of CYP2D6 (unknown origin); format: ADME
Cytochrome P450 2C19 = Cytochrome P450 2C19 (Homo sapiens, UniProt P33261); assay: Inhibition of CYP2C19 (unknown origin); format: ADME
in vivo [20] = conditions: rat, po, 10 mg/kg
Description: AUC (0-infinity) in rat at 10 mg/kg,po

[21] = Half life in dog at 2 mg/kg,iv; format: ADME, organism-based, Canis lupus familiaris; conditions: in vivo
Hepatitis B virus [22] = assay: Antiviral activity against Hepatitis B virus infected in mouse AML12 cells assessed as reduction in viral replication incubated for 2 days by SYBR green based PCR analysis; format: functional, organism-based; conditions: AML12, 48 h

Sequence of Cytochrome P450 2D6 (P10635 whole entry): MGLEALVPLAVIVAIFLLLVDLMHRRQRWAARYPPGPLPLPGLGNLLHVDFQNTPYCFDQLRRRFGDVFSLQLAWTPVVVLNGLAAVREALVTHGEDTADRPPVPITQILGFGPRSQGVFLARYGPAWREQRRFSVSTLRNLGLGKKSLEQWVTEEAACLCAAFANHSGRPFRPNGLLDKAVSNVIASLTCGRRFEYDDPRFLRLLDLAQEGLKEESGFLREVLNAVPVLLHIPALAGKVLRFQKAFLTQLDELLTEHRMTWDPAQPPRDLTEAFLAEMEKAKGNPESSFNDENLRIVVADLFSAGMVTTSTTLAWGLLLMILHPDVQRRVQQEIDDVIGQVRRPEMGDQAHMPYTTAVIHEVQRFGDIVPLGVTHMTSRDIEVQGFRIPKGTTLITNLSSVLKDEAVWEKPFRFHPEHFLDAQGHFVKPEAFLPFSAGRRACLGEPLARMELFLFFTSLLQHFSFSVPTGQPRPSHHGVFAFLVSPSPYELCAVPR
Sequence of Cytochrome P450 3A4 (P08684 whole entry): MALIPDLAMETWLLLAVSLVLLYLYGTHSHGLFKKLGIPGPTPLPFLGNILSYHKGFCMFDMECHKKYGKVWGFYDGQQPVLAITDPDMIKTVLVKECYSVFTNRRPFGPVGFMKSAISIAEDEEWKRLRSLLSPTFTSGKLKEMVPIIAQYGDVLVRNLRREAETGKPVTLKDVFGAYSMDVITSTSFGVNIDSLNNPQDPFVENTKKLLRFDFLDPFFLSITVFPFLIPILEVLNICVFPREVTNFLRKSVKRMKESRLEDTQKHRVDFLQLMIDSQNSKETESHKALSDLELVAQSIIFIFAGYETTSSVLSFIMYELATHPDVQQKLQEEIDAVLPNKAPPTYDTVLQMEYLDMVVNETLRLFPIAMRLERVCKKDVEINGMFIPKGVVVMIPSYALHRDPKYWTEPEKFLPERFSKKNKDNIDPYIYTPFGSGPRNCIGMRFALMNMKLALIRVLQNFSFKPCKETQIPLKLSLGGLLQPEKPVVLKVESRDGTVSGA
Sequence of Cytochrome P450 2C9 (P11712 whole entry): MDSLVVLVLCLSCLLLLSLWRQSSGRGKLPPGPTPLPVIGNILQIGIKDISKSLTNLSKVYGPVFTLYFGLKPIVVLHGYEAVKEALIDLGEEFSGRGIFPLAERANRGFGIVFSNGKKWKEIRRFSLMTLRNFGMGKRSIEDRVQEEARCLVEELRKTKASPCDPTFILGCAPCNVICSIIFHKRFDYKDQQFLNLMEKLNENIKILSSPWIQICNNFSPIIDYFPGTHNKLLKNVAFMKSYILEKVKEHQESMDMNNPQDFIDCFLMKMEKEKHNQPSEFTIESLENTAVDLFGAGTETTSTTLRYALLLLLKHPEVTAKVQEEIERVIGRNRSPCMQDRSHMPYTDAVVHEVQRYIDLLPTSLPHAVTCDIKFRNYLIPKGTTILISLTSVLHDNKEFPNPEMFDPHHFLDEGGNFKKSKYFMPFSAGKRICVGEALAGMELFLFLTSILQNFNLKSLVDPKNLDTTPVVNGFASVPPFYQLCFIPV
Sequence of Cytochrome P450 2C19 (P33261 whole entry): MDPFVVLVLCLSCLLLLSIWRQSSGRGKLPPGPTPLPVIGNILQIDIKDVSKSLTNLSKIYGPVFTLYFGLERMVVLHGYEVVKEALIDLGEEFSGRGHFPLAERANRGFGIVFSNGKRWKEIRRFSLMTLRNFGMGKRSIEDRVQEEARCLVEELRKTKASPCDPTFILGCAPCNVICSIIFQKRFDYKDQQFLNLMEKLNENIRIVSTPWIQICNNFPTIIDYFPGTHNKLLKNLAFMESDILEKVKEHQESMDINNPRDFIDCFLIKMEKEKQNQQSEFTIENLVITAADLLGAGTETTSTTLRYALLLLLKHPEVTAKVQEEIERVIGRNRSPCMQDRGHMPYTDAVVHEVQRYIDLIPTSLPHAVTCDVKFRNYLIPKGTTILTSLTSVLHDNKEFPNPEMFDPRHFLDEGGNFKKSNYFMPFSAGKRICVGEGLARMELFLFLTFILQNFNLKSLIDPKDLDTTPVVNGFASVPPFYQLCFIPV

Row | EC50 (Hepatitis B virus [1]) | microsomal CLint [2] | solubility [3] | microsomal CLint [4] | SMILES | other results
1 | 79 nM | 0.2 µL/min/mg | 6.1 µM (≈ 2.73 µg/mL) | 9 µL/min/mg | O=C(N[C@H]1CCc2c(C(=O)Nc3ccc(F)c(Cl)c3)ccc(F)c21)OCc1nc[nH]n1 | 
2 | 74 nM | 8 µL/min/mg | < 1.6 µM | 17 µL/min/mg | O=C(N[C@H]1CCc2c(C(=O)Nc3ccc(F)c(Cl)c3)ccc(F)c21)OCc1cc[nH]n1 | 
3 | 47 nM | 7.9 µL/min/mg | 4.8 µM (≈ 2.21 µg/mL) | 23 µL/min/mg | Cn1ccc(COC(=O)N[C@H]2CCc3c(C(=O)Nc4ccc(F)c(Cl)c4)ccc(F)c32)n1 | Activity (Hepatitis B virus [5]): 1.4 log10CFU; AUC(0-inf) [6]: 5160 ng·h/mL; Activity (Hepatitis B virus [7]): 2.5 log10CFU; half-life [8]: 210 min; clearance [9]: 19 mL/min/kg; Activity (Hepatitis B virus [10]): Dose-Dependent Effect; Activity (Hepatitis B virus [11]): 0.5 log10CFU; Cmax [12]: 913 ng/mL
4 | 200 nM | 1 µL/min/mg | 6.4 µM (≈ 2.63 µg/mL) | 3 µL/min/mg | O=C(N[C@H]1CCc2c(C(=O)Nc3ccc(F)c(Cl)c3)ccc(F)c21)OCCO | 
5 | 95 nM | 11 µL/min/mg | < 1.6 µM | 36 µL/min/mg | O=C(N[C@H]1CCc2c(C(=O)Nc3ccc(F)c(Cl)c3)ccc(F)c21)OCc1ccccn1 | Activity (Hepatitis B virus [5]): 0.8 log10CFU; AUC(0-inf) [6]: 7230 ng·h/mL; Activity (Hepatitis B virus [7]): 1.6 log10CFU; half-life [8]: 72 min; clearance [9]: 28 mL/min/kg; Activity (Hepatitis B virus [10]): Dose-Dependent Effect; Cmax [12]: 695 ng/mL
6 | 590 nM | 0.6 µL/min/mg |  | 9.2 µL/min/mg | COC(=O)N[C@H]1CCc2c(C(=O)Nc3ccc(F)c(F)c3)cccc21 | 
7 | 580 nM | 10 µL/min/mg | 3 µM (≈ 1.32 µg/mL) | 55 µL/min/mg | COCCCOC(=O)N[C@H]1CCc2c(C(=O)Nc3ccc(F)c(Cl)c3)ccc(F)c21 | 
8 | 850 nM |  |  |  | COC(=O)N[C@H]1CCOc2c(C(=O)Nc3ccc(F)c(Cl)c3)cccc21 | EC50 (Hepatitis B virus [22]): 280 nM; CC50 at 48 h [13]: > 25 µM
9 | 390 nM | 1 µL/min/mg | 7.5 µM (≈ 3.44 µg/mL) | 45 µL/min/mg | O=C(N[C@H]1CCc2c(C(=O)Nc3ccc(F)c(Cl)c3)ccc(F)c21)OCc1ccncn1 | 
10 | 3710 nM |  |  |  | COC(=O)N[C@H]1CCOc2c1ccc(F)c2C(=O)Nc1ccc(F)c(F)c1 | CC50 at 48 h [13]: > 25 µM
11 | 120 nM | 4.8 µL/min/mg | < 1.6 µM | 33 µL/min/mg | O=C(N[C@H]1CCc2c(C(=O)Nc3ccc(F)c(Cl)c3)ccc(F)c21)OCc1ccon1 | 
12 | 2250 nM |  |  |  | COC(=O)N[C@H]1CCOc2c(C(=O)Nc3ccc(F)c(F)c3)cccc21 | EC50 (Hepatitis B virus [22]): 710 nM; CC50 at 48 h [13]: > 25 µM
13 | 570 nM |  |  |  | COC(=O)N[C@H]1CCOc2c(C(=O)Nc3ccc(F)c(F)c3)ccc(F)c21 | CC50 at 48 h [13]: > 25 µM
14 | 71 nM | 7.5 µL/min/mg | < 1.6 µM | 23 µL/min/mg | O=C(N[C@H]1CCc2c(C(=O)Nc3ccc(F)c(Cl)c3)ccc(F)c21)OCc1ncco1 | 
15 | 1170 nM |  |  |  | COC(=O)N[C@H]1CCOc2c(C(=O)Nc3cc(F)c(F)c(F)c3)cccc21 | CC50 at 48 h [13]: > 25 µM
16 | 280 nM | 104 µL/min/mg | < 1.6 µM | 96 µL/min/mg | Cn1ccnc1COC(=O)N[C@H]1CCc2c(C(=O)Nc3ccc(F)c(Cl)c3)ccc(F)c21 | 
17 | 2230 nM |  |  |  | COC(=O)N[C@H]1CCOc2c1ccc(F)c2C(=O)Nc1ccc(F)c(Cl)c1 | CC50 at 48 h [13]: > 25 µM

The next lines start with the molecule.

Row | SMILES | EC50 (Hepatitis B virus [1]) | microsomal CLint [2] | solubility [3] | microsomal CLint [4] | other results
18 | COC(=O)N[C@H]1CCOc2c(C(=O)Nc3ccc(F)c(Cl)c3)ccc(F)c21 | 200 nM |  |  |  | CC50 at 48 h [13]: > 25 µM
19 | COC(=O)N[C@H]1CCOc2c(C(=O)Nc3ccc(F)c(F)c3)c(F)cc(F)c21 | 800 nM |  |  |  | CC50 at 48 h [13]: > 25 µM
20 | Cn1cnc(COC(=O)N[C@H]2CCc3c(C(=O)Nc4ccc(F)c(Cl)c4)ccc(F)c32)n1 | 77 nM | 6.2 µL/min/mg | 14.8 µM (≈ 6.84 µg/mL) | 21 µL/min/mg | IC50 (Cytochrome P450 2C9): > 20 µM; Activity (Hepatitis B virus [5]): 2.4 log10CFU; AUC(0-inf) (in vivo [14]): 134 µg·h/mL; AUC(0-inf) [6]: 9870 ng·h/mL; Activity (Hepatitis B virus [7]): 2.9 log10CFU; half-life [8]: 150 min; IC50 (Cytochrome P450 3A4): > 20 µM; clearance [15]: 1.25 mL/min/kg; clearance [9]: 18 mL/min/kg; clearance [16]: 4.6 mL/min/kg; Cmax [17]: 2850 ng/mL; Cmax [18]: 6820 ng/mL; Activity (Hepatitis B virus [10]): Dose-Dependent Effect; IC50 (Cytochrome P450 1A2): > 20 µM; half-life [19]: 192 min; IC50 (Cytochrome P450 2D6): > 20 µM; IC50 (Cytochrome P450 2C19): > 20 µM; Activity (Hepatitis B virus [11]): 1 log10CFU; AUC(0-inf) (in vivo [20]): 39600 ng·h/mL; half-life [21]: 684 min
21 | COCCOC(=O)N[C@H]1CCc2c(C(=O)Nc3ccc(F)c(Cl)c3)ccc(F)c21 | 190 nM | 8.2 µL/min/mg | 2.8 µM (≈ 1.19 µg/mL) | 8.1 µL/min/mg | 
22 | O=C(N[C@H]1CCc2c(C(=O)Nc3ccc(F)c(Cl)c3)ccc(F)c21)OCc1ncccn1 | 120 nM | 3.5 µL/min/mg | 4.5 µM (≈ 2.06 µg/mL) | 17 µL/min/mg | 
23 | COC(=O)N[C@H]1CCCc2c(C(=O)Nc3ccc(F)c(F)c3)cccc21 | 8600 nM | 0.3 µL/min/mg |  | 21 µL/min/mg | 
24 | COC(=O)N[C@H]1CCc2c(C(=O)Nc3ccc(F)c(Cl)c3)ccc(F)c21 | 170 nM | 3.5 µL/min/mg | < 1.6 µM | 9.2 µL/min/mg | 
25 | O=C(N[C@H]1CCc2c(C(=O)Nc3ccc(F)c(Cl)c3)ccc(F)c21)OCCn1ccnc1 | 300 nM | 20 µL/min/mg | 16.9 µM (≈ 7.79 µg/mL) | 20 µL/min/mg | 
26 | Cn1nccc1COC(=O)N[C@H]1CCc2c(C(=O)Nc3ccc(F)c(Cl)c3)ccc(F)c21 | 100 nM | 38 µL/min/mg | 9.1 µM (≈ 4.19 µg/mL) | 25 µL/min/mg | 
27 | COC(=O)N[C@H]1CCCOc2c(C(=O)Nc3ccc(F)c(F)c3)cccc21 | > 25000 nM |  |  |  | 
28 | COC(=O)N[C@H]1COc2c(C(=O)Nc3ccc(F)c(F)c3)cccc21 | 1320 nM | 5 µL/min/mg |  | 41 µL/min/mg | 
29 | CC(=O)NCCOC(=O)N[C@H]1CCc2c(C(=O)Nc3ccc(F)c(Cl)c3)ccc(F)c21 | 190 nM | 133 µL/min/mg | 43.4 µM (≈ 19.6 µg/mL) | 17 µL/min/mg | 
30 | O=C(Nc1ccc(F)c(Cl)c1)c1cccc2c1OCCO2 |  |  |  |  | EC50 (Hepatitis B virus [22]): 200 nM
31 | O=C(N[C@H]1CCc2c(C(=O)Nc3ccc(F)c(Cl)c3)ccc(F)c21)OCc1cnccn1 | 120 nM | 6.9 µL/min/mg | < 1.6 µM | 18 µL/min/mg | 
